Laboratory results taken from ChEMBL document CHEMBL3507680, “University of Dundee, Gates Library screen for HepG2 cell viability”.

experiment: Human HepG2 cell viability assay in 384 well format; assay type: toxicity, cell-based; parameters: dose 125 nL, time 70.5 hour; cytotoxicity at 70.5 h: concentration not given beside the values; conditions: HepG2 cells, read-out: Inhibition

Row | SMILES | cytotoxicity at 70.5 h [%]
1 | O=S(=O)(c1cn[nH]c1)N1CCC(O)(CN2CCOCC2)C1 (centres undefined) | 4.95
2 | CCC(=O)N1CCC(c2ncc(C(=O)Nc3ccccc3)c(C)n2)C1 (centres undefined) | -3.38
3 | O=C(c1ccncc1)N1CCCC(C2=Nc3ccccc3S(=O)(=O)N2)C1 (centres undefined) | -3.07
4 | CN1CCCC(c2cccc(-c3ccccc3F)n2)C1 (centres undefined) | -2.39
5 | CN(C)c1ccc(C(=O)N2CCC(c3cc4cnccc4[nH]3)CC2)cc1 | -0.667
6 | CC(=O)N1CCC1c1nc(-c2ccc(C)s2)no1 (centres undefined) | 23.5
7 | Cn1ccc(C(=O)N2CCCC2c2cc(CO)[nH]n2)n1 (centres undefined) | -2.72
8 | Cc1cc(NC(=O)CN2CCN(C3CCCC3)C(=O)C2)nn1C | -4.01
9 | Cc1noc(C)c1C(=O)N[C@@H]1CC[C@@H](Oc2ccccc2)[C@@H]1O | -2.95
10 | OCc1cc(C2CCCN2c2ncccn2)n[nH]1 (centres undefined) | 0.468
11 | Fc1ccccc1-c1cccc(C2CCCN(C3CCOCC3)C2)n1 (centres undefined) | -7.34
12 | COc1ccc(C2CN(c3nc(C)cc(C)n3)CCN2C(C)=O)cc1 (centres undefined) | -4.4
13 | CCc1c(C)nn2c(O)cc(C3CCN(C(=O)C4CC4)C3)nc12 (centres undefined) | -6
14 | CCNC(=O)[C@H]1CN(Cc2ccccc2)C[C@@H]1C(=O)c1ccccc1 | -12.3
15 | O=C(c1cc(C2CC2)on1)N1C[C@H]2CC[C@](O)(c3ccccc3F)[C@H]2C1 | -0.256
16 | CN(C)Cc1cccc(-c2cccnc2C(=O)NCc2ccccn2)c1 | -3.29
17 | CN([C@@H]1CC[C@@H](N2CCOCC2)[C@@H]1O)S(=O)(=O)c1ccccc1 | -10.3
18 | CC1(c2nccs2)CCN(C(=O)CC2CCOCC2)CC1 | -9.57
19 | Nc1cc(-c2c[nH]nc2C2CCN(C(=O)C3CCCC3)C2)ccn1 (centres undefined) | 5.65
20 | c1cnc(N2CCCC(Cc3nccs3)C2)nc1 (centres undefined) | -3.8
21 | CS(=O)(=O)N1CCCCC1c1ccc(Nc2cnccn2)nc1 (centres undefined) | -7.53
22 | Cc1cc(C(F)F)nn1CC(=O)NCc1nccn1C | -3.8
23 | CNC(=O)C1CN(C(=O)Cc2ccc(OC)cc2)Cc2cn(C)nc21 (centres undefined) | -7.07

Row | SMILES | cytotoxicity at 70.5 h [%]
24 | CCCC(=O)NCCc1cc(NC)nc(-c2ccccn2)n1 | 20.8
25 | CNC(=O)C1CCCN(C(=O)c2cncs2)C1 (centres undefined) | -9.62
26 | CN1CCN(C(=O)CCn2ncc3ccccc32)CC(C(N)=O)C1 (centres undefined) | -6.19
27 | CN(C)c1nccnc1C1CCN(C(=O)C2(C)CCCCN2C)CC1 (centres undefined) | -5.33
28 | Cc1cncc(C2CCN(Cc3ccc(S(C)(=O)=O)cc3)CC2)n1 | -9.92
29 | O=C(CC1CC1)N1C[C@@H](O)[C@H](N2CCN(c3ccccc3)CC2)C1 | 22.4
30 | CC(C)N1CC(c2ccnc(Nc3nccs3)n2)C1 | -10.4
31 | Cc1cncc(C2CCN(Cc3cnc(C)nc3)CC2)n1 | -7.22
32 | CC(C)Cn1nc(-c2ccc(C(=O)O)cc2)cc1-c1ccc(F)cc1 | -5.39
33 | CC1(C)O[C@@](C)([C@H]2CC3(CCN(c4ncccn4)CC3)CO2)CC[C@@H]1O | -4.22
34 | NC(=O)CN1C[C@@H](c2ccccc2F)[C@@]2(CCCCC(=O)N2)C1 | -7.09
35 | Cc1nn(C)cc1C(=O)N1CCC(C(=O)c2nc3ccccc3s2)CC1 | -4.17
36 | CN(C(=O)c1ccncc1)c1nnc(C2CCOC2)s1 (centres undefined) | -5.28
37 | Cc1nn(C)c(C)c1-c1ccc(=O)n(C(C)C(=O)NCc2ccco2)n1 (centres undefined) | -7.42
38 | CCc1c(C)nc2cc(-c3nccn3C)nn2c1N1CCCC(CO)C1 (centres undefined) | 27.9
39 | Cn1ccnc1C(O)c1ccccc1N1CCN(CC2CCCC2)CC1 (centres undefined) | -3.89
40 | Cc1cc(-c2cnc(N3CCCC(C)C3)nc2C(C)C)on1 (centres undefined) | 18.8
41 | CCC(=O)NCCc1cc2nc(-c3ccncc3)ccn2n1 | -5.77
42 | Cc1nc2cc(C3CCN(C(=O)c4ccccn4)CC3)nn2c(O)c1C | 44.6
43 | Cc1ncc(C(=O)N2CC(C(=O)N3CCOCC3)C2)c(C)n1 | -12.5
44 | O=C(Cn1c(=O)n(Cc2ccco2)c2ncccc21)NC1CCCC1 | -7.12
45 | Cc1cc(-c2cnc(N3CCOCC3)nc2-c2ccc(C)s2)on1 | -3.57
46 | Cc1cc(-c2cnc(N3CCSCC3)nc2-c2ccc(C)s2)on1 | -7.01

Row | SMILES | cytotoxicity at 70.5 h [%]
47 | Cc1cc(-c2cnc(N3CCCC3)nc2-c2ccc(C)s2)on1 | -6.38
48 | COCCC(=O)N1CCCC1c1csc(Nc2ccccn2)n1 (centres undefined) | 21.7
49 | CNc1ccc(CC2CCCN(C(=O)c3cccc(C)n3)C2)nn1 (centres undefined) | -0.376
50 | COCC(=O)N1CCCC(c2cccc(-n3ccnc3)n2)C1 (centres undefined) | 4.64
51 | COc1ccc(C)cc1CC(=O)N1CC[C@@]2(CCCO2)[C@@H](O)C1 | -5.66
52 | CO[C@H]1CN(Cc2cc(F)ccc2F)CC[C@@]12CCCO2 | -2.25
53 | Cc1cnccc1CN1CC[C@H](Oc2cccc(F)c2)[C@@](C)(O)C1 | 0.441
54 | C[C@]1(O)CN(Cc2cccc(C(=O)O)c2)CC[C@@H]1Oc1cccc(F)c1 | -4.99
55 | CN(C)c1ccc(CC2COCCN(Cc3nccn3C)C2)nn1 (centres undefined) | -0.733
56 | NC(=O)CN1CCC(c2cc(C(F)(F)F)n3ccnc3n2)CC1 | -3.15
57 | Cc1cccc(Nc2cc(C)nc(C3CCCCN3CC(N)=O)n2)n1 (centres undefined) | -4.2
58 | CCn1ccc(C(=O)N2CCOC(c3nc(-c4cccs4)no3)C2)n1 (centres undefined) | -4.33
59 | COCC(=O)N1CCCC1c1nccnc1Nc1ncccn1 (centres undefined) | -3.81
60 | Cc1c[nH]nc1C1CCCN(C(=O)c2c(C)noc2C)C1 (centres undefined) | -1.16
61 | Cn1nccc1CCC(=O)N1CCCC(Cc2cccnc2)C1 (centres undefined) | -5.31
62 | CNc1cncc(C2CCCN2Cc2ccn(C)n2)n1 (centres undefined) | -1.7
63 | Cc1ncsc1C(=O)N1CCC(O)(CN2CCc3ccccc3C2)C1 (centres undefined) | 10.1
64 | Cc1ccc(C(=O)N2CCC(O)(CN3CCc4ccccc4C3)C2)s1 (centres undefined) | -2.78
65 | CCc1nccn1-c1cncc(C2CCCN2Cc2ccccn2)n1 (centres undefined) | -7.66
66 | Cc1ccn(CCC(=O)N2CCCC(Cc3cccnc3)C2)n1 (centres undefined) | -5.66
67 | Cc1ncsc1-c1nnc(C2CCN(Cc3ccccc3)CC2)o1 | -1.36
68 | COCC(=O)N1CCCC1c1cc(N2CCN(C(C)=O)CC2)cc(C)n1 (centres undefined) | 22.7
69 | NC[C@H]1CC[C@H](C(NC(=O)C2CC2)c2ccccn2)CC1 (some centres undefined) | -6.56

Row | SMILES | cytotoxicity at 70.5 h [%]
70 | CC(=O)N1CCCC1c1cc(N2CCN(CC3CC3)CC2)cc(C)n1 (centres undefined) | -1.76
71 | CC(=O)N1CCCCC1c1nc2c(c(NC3CCCC3)n1)CN(C)CC2 (centres undefined) | 17
72 | COc1cccc(C(=O)N2CCCC2c2ncc3c(n2)CCN(C)C3)c1 (centres undefined) | -0.392
73 | CCCC(=O)N1CCc2nc3cc(OC)c(OC)cc3c(=O)n2CC1 | -5.67
74 | CC(=O)NC[C@]1(O)CCN(C(=O)c2ccc(F)c(Cl)c2)C[C@H]1O | -6.22
75 | Cc1ccsc1CN(CCCN(C)C)Cc1ccccn1 | -3.09
76 | Cc1ccsc1C(=O)N1CCC2(CC(N(C)c3ccncn3)C2)C1 (centres undefined) | -4.77
77 | Cc1csc(C(=O)N2CCC3(CC(N(C)c4ccncn4)C3)C2)c1 (centres undefined) | -5.37
78 | Nc1cc(CCC2CN(Cc3ccc4c(c3)OCCO4)CCO2)ccn1 (centres undefined) | 0.977
79 | Nc1cc(CCC2CN(Cc3ccc4cc[nH]c4c3)CCO2)ccn1 (centres undefined) | 20.8
80 | CN(c1ccncn1)C1CC2(CCN(C(=O)Cc3cccs3)C2)C1 (centres undefined) | -6.91
81 | Cc1csc(C(=O)N2CC[C@H](Oc3cccnc3C)[C@@H](O)CC2)c1 | 14
82 | Cn1ccc(C(=O)N2CCC(Cc3cccc4ncccc34)C2)n1 (centres undefined) | -1.84
83 | C[C@]1(O)CN(CC(=O)N2CCCC2)CC[C@@H]1Oc1cccc(F)c1 | 17.5
84 | CC(C)c1nccn1-c1cccc(C2CCCN(S(=O)(=O)N(C)C)C2)n1 (centres undefined) | -3.37
85 | O=C(c1cnccn1)N1CCCC(Cc2cccc3ncccc23)C1 (centres undefined) | -4.96
86 | CNc1ccc(CC2CCCN(C(=O)c3cnco3)C2)nn1 (centres undefined) | -9.21
87 | O=C(c1cnccn1)N1CCCC(c2cccc(-n3ccnc3)n2)C1 (centres undefined) | 11.1
88 | OCCC1(NCc2ccc(-n3cccn3)cc2)CCOCC1 | -2.65
89 | O=C(O)c1ccn(-c2ccc(NC(=O)c3ccccc3Cl)cc2)n1 | 11.9
90 | CCC(c1ccc(F)cc1F)S(=O)(=O)CCO (centres undefined) | -1.73
91 | CCC(c1ccccc1)S(=O)(=O)CCO (centres undefined) | -2.1
92 | CN1CCN(CCNC(=O)c2sccc2C2CC2)CC1 | -2.66

Row | SMILES | cytotoxicity at 70.5 h [%]
93 | CN(Cc1ccc(F)cc1)Cc1cc2c(cc1Br)OCCO2 | -8.04
94 | CC(C)(C)NC(=O)CN1CCCNCC1 | -0.58
95 | CN(Cc1ccccc1F)Cc1cc2c(cc1Br)OCCO2 | -9.57
96 | Cn1ccnc1CN1CCCC1CCc1ccccc1 (centres undefined) | 2.44
97 | Cc1csc(C(C)(C)NCCOc2ccc(CC#N)cc2)n1 | -0.219
98 | Cc1cnn(CCNCC(=O)N2CCN(c3ccccn3)CC2)c1 | 8.76
99 | c1nn(C2CCCCC2)cc1-c1cncn1CCCN1CCCCC1 | -0.625
100 | Cc1nc2cc(-c3nccn3C)nn2c(N2CCC(O)CC2)c1C | -3.32
101 | Cc1nc(NCc2ccc(F)cc2)cc(C2CCCN2)n1 (centres undefined) | -2.67
102 | Cn1ccnc1CNC(=O)c1ccnc(C2CCNCC2)c1 | -6.57
103 | O=C(NCC(F)F)c1cnc(C2CCCN2)cn1 (centres undefined) | -3.12
104 | NCC(=O)N1CCCC1c1nccnc1Nc1ncccn1 (centres undefined) | -1.95
105 | COc1ncc(C2(O)CCN(Cc3ccc(F)c(F)c3)CC2)c(OC)n1 | -3.5
106 | COc1ccc(-c2ccc(C3CNCCO3)nc2)cc1 (centres undefined) | -5.61
107 | CNc1cc(C2CCCNC2)nc(C)n1 (centres undefined) | 16.2
108 | Cc1nc2sccn2c1CN(CCCN(C)C)Cc1ccco1 | -21.2
109 | COc1ccccc1CN(Cc1cccnc1)CC1CCCO1 (centres undefined) | -1.02
110 | CN(C)CCN(C(=O)Cc1ccc2c(c1)OCCO2)C1CCN(C)CC1 | 2.11
111 | CCCN(Cc1cccnc1)C1CC(C)(C)NC(C)(C)C1 | -3.34
112 | CC1(C)CC(N(Cc2cccnc2)Cc2cccc(F)c2)CC(C)(C)N1 | 2.01
113 | CCCOc1ccccc1CN[C@@H]1CCC[C@H]1Cc1cc(C)no1 | 23.6
114 | Cc1cc(C[C@@H]2CCC[C@H]2NCc2cc(F)ccc2F)on1 | -1.78
